# Test results: ChEMBL document CHEMBL1143589, “Effects of 5'-phosphate derivatives of 2-hexynyl adenosine and 2-phenylethynyl adenosine on responses of human platelets mediated by P2Y receptors” (J Med Chem, 2005)
# What was measured:
# Assay type in all cases: functional
# [1] = Effect of compound at 100 uM on platelet aggregation induced by 10 uM ADP
# [2] = Effect of compound at 1 uM on platelet aggregation induced by 10 uM ADP
# [3] = Effect of compound at 10 uM on platelet aggregation induced by 10 uM ADP
# [4] = Inhibitory effect of ADP (10 uM) on PGE1 (2 uM)-induced increase in platelet cAMP levels at 100 uM concentration of compound
# [5] = Inhibitory effect of ADP (10 uM) on PGE1 (2 uM)-induced increase in platelet cAMP levels at 1 uM concentration of compound
# [6] = Inhibitory effect of ADP (10 uM) on PGE1 (2 uM)-induced increase in platelet cAMP levels at 10 uM concentration of compound
# [7] = Inhibitory concentration of compound on platelet aggregation
# [8] = Inhibitory effect of ADP (10 uM) on PGE1 (2 uM)-induced increase in platelet cAMP levels at 800 uM concentration of compound
# [9] = Effect of compound at 800 uM on platelet aggregation induced by 10 uM ADP
# [10] = Effect of compound on elevation of cAMP levels induced by 2 uM PGE1 at 1 uM
# [11] = Effect of compound on elevation of cAMP levels induced by 2 uM PGE1 at 100 uM
# [12] = Platelet shape change and aggregation induced by the compound at 1 uM concentration
# [13] = Platelet shape change and aggregation induced by the compound at 100 uM concentration
# [14] = Platelet shape change and aggregation induced by the compound at 10 uM concentration
# [15] = Effect of compound on elevation of cAMP levels induced by 2 uM PGE1 at 10 uM
IC50 [7],Compound,Activity [1],Activity [2],Activity [3],Inhibition [4],Inhibition [5],Inhibition [6],Inhibition [8],Activity [9],Activity [10],Activity [11],Light transmission [12],Light transmission [13],Light transmission [14],Activity [15]
85 µM,Nc1nc(C#Cc2ccccc2)nc2c1ncn2[C@@H]1O[C@H](COP(=O)(O)OP(=O)(O)OP(=O)(O)O)[C@@H](O)[C@H]1O,46.6,81,81.6,5.7%,1.6%,1.6%,68.9%,0.2,,,,,,
,CCCCC#Cc1nc(N)c2ncn(C3O[C@H](COP(=O)(O)OP(=O)(O)O)[C@@H](O)[C@H]3O)c2n1 (stereo partly specified),100,98,99,,,,,,58,38,0%,41%,17%,50
60 µM,Nc1nc(C#Cc2ccccc2)nc2c1ncn2C1O[C@H](COP(=O)(O)OP(=O)(O)O)[C@@H](O)[C@H]1O (stereo partly specified),43.2,81.5,77.4,4.1%,1%,2.6%,29.5%,9.5,,,,,,
130 µM,Nc1nc(C#Cc2ccccc2)nc2c1ncn2C1O[C@H](COP(=O)(O)O)[C@@H](O)[C@H]1O (stereo partly specified),58.4,86,92.8,14.9%,4.6%,4.1%,74.4%,0.2,,,,,,
,Nc1ncnc2c1ncn2[C@@H]1O[C@H](COP(=O)(O)OP(=O)(O)O)[C@@H](O)[C@H]1O [ADENOSINE DIPHOSPHATE],,,,,,,,,,,,,53%,34
,CCCCC#Cc1nc(N)c2ncn(C3O[C@H](COP(=O)(O)OP(=O)(O)OP(=O)(O)O)[C@@H](O)[C@H]3O)c2n1 (stereo partly specified),64,92,90,,,,,,59,27,0%,39%,9%,35
14 µM,CCCCC#Cc1nc(N)c2ncn(C3O[C@H](COP(=O)(O)O)[C@@H](O)[C@H]3O)c2n1 (stereo partly specified),11.8,75.2,54.4,13.6%,6.7%,9.6%,58.2%,0,,,,,,
